Values of other authors as cited in publication PMC5381245 (Theranostics, 2017).

Test system: tumor
Conditions: 2 h p.i.

Row | tumor-to-kidney uptake ratio | tumor uptake [%ID/g] | tumor-to-kidneys uptake ratio | Substance
1 | 2.8 | – | – | ^111In-DOTA-GlyGly-Nle-CycMSHhex (sidechain bridge or staple)
2 | – | 19.4 ± 1.7 | 2.0 | ^111In-DOTA-Nle-CycMSHhex (sidechain bridge or staple)
3 | – | 13.4 ± 1.6 | – | NOTA-GlyGly-Nle-CycMSHhex (sidechain bridge or staple) [^64Cu-labeled NOTA-GlyGly-Nle-CycMSHhex]
